Data published in PubChem BioAssay (NCI).
“And” between values parts separate entries of the source, which are not always exact repeats. Equal values may be shown once.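 Values below derive from 48-hour exposures of cells grown in 96-well plates, with endpoints linearly interpolated between the two concentrations bracketing the appropriate inhibition level. The concentration for 50% growth inhibition is given as GI50. TGI denotes the concentration required for complete inhibition of growth.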

system: M19-MEL melanoma; assay: NCI-60 cell line screen, 48 h

Compound | TGI | GI50 [µM]
Cc1c(C(=O)C/C(=N/NC(=O)c2ccccc2O)C(=O)Nc2ccccc2C(C)C)[n+](=O)c2ccccc2n1[O-] | > 100 µM | 
CCCCCCCCCCCC(=O)OCCOCCOCCOCCOCCOCc1ccccc1 | > 100 µM | 
CCCC1C(=O)CCc2c(OC)ccc(OC)c21 (centres undefined) | > 100 µM | 
O=C(CCc1nc(=S)[nH][nH]1)Nc1cc(Cl)c(Cl)cc1Cl | > 100 µM | 
O=C(Nc1nc2ccc([N+](=O)[O-])cc2s1)C(=O)C(C1OC(=O)c2ccccc21)[N+](=O)[O-] (centres undefined) | > 100 µM | 
O=C(CCc1nc(=S)[nH][nH]1)Nc1ccc(Cl)c(Cl)c1 | > 100 µM | 
COC(=O)C1(C(C)C)CCc2c(OC)ccc(OC)c2C1=O (centres undefined) | > 100 µM | 
O=C(Nc1ccccc1)c1c(O)[nH]c(=S)[nH]c1=O | 118 µM | 
COC(=O)c1ccccc1NC(=O)C(=O)Cc1nc2c3c(ccc2[nH]c1=O)C(=O)c1ccccc1C3=O | 23.9 µM | 
Cc1ccc(S(=O)(=O)OC[C@@H]2CO2)cc1 | > 100 µM | 
COc1cc2cc(OC)c3cc4c(cc3c2c(OC)c1OC)OCO4 | 48.8 µM | 
O=C(CC(=O)c1cccc2ccccc12)C(=O)Nc1ccc(Cl)cc1 | > 100 µM | 
CCCCCCCCCCCCCC(=O)OC(/C=C/C(C)C)C(O)C(O)C(OC)C(=O)NC1CCCCN(C)C1=O (centres undefined) | 7.5 µM and > 49 µM | > 49
CC1(C(=O)O)CCC[C@@]2(C)C1CC[C@@]1(C)c3cocc3CCC21 (some centres undefined) | > 100 µM | 
CCn1c(C)nn2c(=O)c3ccccc3nc2c1=O | > 100 µM | 
CCOC(=O)CCC1(C(=O)OCC)CCCCC1=O (centres undefined) | > 100 µM | 
CCN(CC)CCSc1c2ccccc2nc2cc(NCC(=O)Nc3ccccc3-c3ccccc3NC(=O)CNc3ccc4c(SCCN(CC)CC)c5ccccc5nc4c3)ccc12 | > 54.7 µM | 

Compound | TGI | GI50 [µM]
Cc1nc2c(ccc3ncccc32)[nH]1 | > 100 µM | 
CC(=O)[CH-]C(=O)c1ccccc1.CC(=O)[CH-]C(=O)c1ccccc1.CN(C)c1ccc([O-])cc1.CN(C)c1ccc([O-])cc1.Cl.[Ti+4] | 26.4 µM | 15.1
CC1(C)C(=O)/C=C\C(=O)C(C)(C)C2=CC=C(O2)C(C)(C)C(=O)/C=C\C(=O)C(C)(C)C2=CC=C1O2 | > 100 µM | 
NC(=O)NO.O.O.O.O.O.O.O.O.O.O.O.[Ge].[Ge].[Ge].[Ge].[Ge].[O]=[Ge].[O]=[Ge].[O]=[Ge].[O]=[Ge].[O]=[Ge][OH] | > 100 µM | 
CN(C)C(=S)N=C(Nc1ccccc1)Nc1ccccc1 | > 100 µM | 
CCC[CH2][Sn]([CH2]CCC)([S]c1cccc2cccnc12)[S]c1cccc2cccnc12 | 0.587 µM | 0.216
OCC1=CC(NC2CC(CO)C(O)C(O)C2O)C(O)C(O)C1O (centres undefined) | > 100 µM | 
Nc1ccccc1S(=O)(=O)N(CC(=O)O)c1ccccc1 | > 100 µM | 
CCOC(=O)C(C)(C)Oc1ccc2c(-c3ccccc3)cc(=O)oc2c1 | 98 µM | 
CNS(=O)(=O)NNS(=O)(=O)c1ccccc1 | > 100 µM | 
Cc1cc(NS(=O)(=O)c2ccc(Nc3c4ccccc4nc4c(C(=O)N5CCN(CCOS(C)(=O)=O)CC5)cccc34)cc2)no1 | > 100 µM | 
O=C(O)CCC(NC(=O)c1ccc(Nc2nc3ccccc3nc2-c2cccs2)cc1)C(=O)O (centres undefined) | > 100 µM | 
NC1=NCCC1(c1ccccc1)c1ccccn1 (centres undefined) | > 100 µM | 
CNC(=S)OCCC(C)CCCC(C)C (centres undefined) | 34.9 µM | 
COC(=O)/C(C#N)=C1\NC(=O)c2ccccc21 | > 100 µM | 
Cc1cnc(NCCCN(C)C)c2c1[nH]c1ccc3cc(O)ccc3c12 | 1.25 µM | 

system: IGROV1 ovarian; assay: NCI-60 cell line screen, 48 h

Compound | TGI | GI50 [µM]
O=C1/C(=C/c2ccc(O)c(O)c2)CCC/C1=C\c1ccc(O)c(O)c1 | 15.9 µM | 
Cc1c(C(=O)C/C(=N/NC(=O)c2ccccc2O)C(=O)Nc2ccccc2C(C)C)[n+](=O)c2ccccc2n1[O-] | > 100 µM | 
CCCCCCCCCCCC(=O)OCCOCCOCCOCCOCCOCc1ccccc1 | > 100 µM | 
CCCC1C(=O)CCc2c(OC)ccc(OC)c21 (centres undefined) | > 100 µM | 
O=C(CCc1nc(=S)[nH][nH]1)Nc1cc(Cl)c(Cl)cc1Cl | > 100 µM | 
O=C(Nc1nc2ccc([N+](=O)[O-])cc2s1)C(=O)C(C1OC(=O)c2ccccc21)[N+](=O)[O-] (centres undefined) | > 100 µM | 
O=C(CCc1nc(=S)[nH][nH]1)Nc1ccc(Cl)c(Cl)c1 | > 100 µM | 
COC(=O)C1(C(C)C)CCc2c(OC)ccc(OC)c2C1=O (centres undefined) | > 100 µM | 
O=C(Nc1ccccc1)c1c(O)[nH]c(=S)[nH]c1=O | 97.1 µM and > 250 µM | 45.9
COC(=O)c1ccccc1NC(=O)C(=O)Cc1nc2c3c(ccc2[nH]c1=O)C(=O)c1ccccc1C3=O | 99.1 µM | 
Cc1ccc(S(=O)(=O)OC[C@@H]2CO2)cc1 | > 100 µM | 
COc1cc2cc(OC)c3cc4c(cc3c2c(OC)c1OC)OCO4 | > 100 µM | 
O=C(CC(=O)c1cccc2ccccc12)C(=O)Nc1ccc(Cl)cc1 | > 100 µM | 
CCCCCCCCCCCCCC(=O)OC(/C=C/C(C)C)C(O)C(O)C(OC)C(=O)NC1CCCCN(C)C1=O (centres undefined) | 5.9 µM and > 49 µM | 
CC1(C(=O)O)CCC[C@@]2(C)C1CC[C@@]1(C)c3cocc3CCC21 (some centres undefined) | > 100 µM | 
CCn1c(C)nn2c(=O)c3ccccc3nc2c1=O | > 100 µM | 
CCOC(=O)CCC1(C(=O)OCC)CCCCC1=O (centres undefined) | > 100 µM | 
CCN(CC)CCSc1c2ccccc2nc2cc(NCC(=O)Nc3ccccc3-c3ccccc3NC(=O)CNc3ccc4c(SCCN(CC)CC)c5ccccc5nc4c3)ccc12 | > 100 µM | 
Cc1nc2c(ccc3ncccc32)[nH]1 | > 100 µM | 

Compound | TGI | GI50 [µM]
Cc1cc(N(CCC#N)CCC#N)ccc1N=Nc1ccc(S(N)(=O)=O)cc1 | > 100 µM | 
CC(=O)[CH-]C(=O)c1ccccc1.CC(=O)[CH-]C(=O)c1ccccc1.CN(C)c1ccc([O-])cc1.CN(C)c1ccc([O-])cc1.Cl.[Ti+4] | > 100 µM | 46.8
CC1(C)C(=O)/C=C\C(=O)C(C)(C)C2=CC=C(O2)C(C)(C)C(=O)/C=C\C(=O)C(C)(C)C2=CC=C1O2 | > 100 µM | 
NC(=O)NO.O.O.O.O.O.O.O.O.O.O.O.[Ge].[Ge].[Ge].[Ge].[Ge].[O]=[Ge].[O]=[Ge].[O]=[Ge].[O]=[Ge].[O]=[Ge][OH] | > 100 µM | 
CN(C)C(=S)N=C(Nc1ccccc1)Nc1ccccc1 | > 100 µM | 
CCC[CH2][Sn]([CH2]CCC)([S]c1cccc2cccnc12)[S]c1cccc2cccnc12 | 0.53 µM | 0.224
OCC1=CC(NC2CC(CO)C(O)C(O)C2O)C(O)C(O)C1O (centres undefined) | > 100 µM | 
Nc1ccccc1S(=O)(=O)N(CC(=O)O)c1ccccc1 | > 100 µM | 
CCOC(=O)C(C)(C)Oc1ccc2c(-c3ccccc3)cc(=O)oc2c1 | > 100 µM | 
CNS(=O)(=O)NNS(=O)(=O)c1ccccc1 | > 100 µM | 
Cc1cc(NS(=O)(=O)c2ccc(Nc3c4ccccc4nc4c(C(=O)N5CCN(CCOS(C)(=O)=O)CC5)cccc34)cc2)no1 | > 100 µM | 
O=C(O)CCC(NC(=O)c1ccc(Nc2nc3ccccc3nc2-c2cccs2)cc1)C(=O)O (centres undefined) | > 100 µM | 
NC1=NCCC1(c1ccccc1)c1ccccn1 (centres undefined) | > 100 µM | 
CNC(=S)OCCC(C)CCCC(C)C (centres undefined) | 31.7 µM | 
Nc1ccccc1C#C/C=C\C#Cc1ccccc1OC(F)(F)F | 39.9 µM | 5.64
COC(=O)/C(C#N)=C1\NC(=O)c2ccccc21 | > 100 µM | 
Cc1ccc(NC(=O)Nc2ccc(-c3cccnc3)cc2N2CCC(CO)CC2)cc1 | > 100 µM | 8.44
Cc1cnc(NCCCN(C)C)c2c1[nH]c1ccc3cc(O)ccc3c12 | 4.6 µM | 
Fc1ccc(NC(=S)SCc2ccc3c(c2)OCO3)cc1F | 39.6 µM | 
